The record followed here is PubChem BioAssay AID434997 (The Scripps Research Institute Molecular Screening Center, 2010).

The experiment addresses NADPH oxidase 1 (Homo sapiens) (UniProt Q9Y5S8). The experiment can be described thus: NOX1 inhibitors, concentration-response, dose response, cell-based, luminescence, cherry picks 2 (AID 434997). The following applies: NOX1-expressing cells, ROS luminescence.

In general, IC50 refers to the midpoint of a concentration-inhibition curve.

Chain of NADPH oxidase 1 (Homo sapiens) (Q9Y5S8 whole entry, looked up): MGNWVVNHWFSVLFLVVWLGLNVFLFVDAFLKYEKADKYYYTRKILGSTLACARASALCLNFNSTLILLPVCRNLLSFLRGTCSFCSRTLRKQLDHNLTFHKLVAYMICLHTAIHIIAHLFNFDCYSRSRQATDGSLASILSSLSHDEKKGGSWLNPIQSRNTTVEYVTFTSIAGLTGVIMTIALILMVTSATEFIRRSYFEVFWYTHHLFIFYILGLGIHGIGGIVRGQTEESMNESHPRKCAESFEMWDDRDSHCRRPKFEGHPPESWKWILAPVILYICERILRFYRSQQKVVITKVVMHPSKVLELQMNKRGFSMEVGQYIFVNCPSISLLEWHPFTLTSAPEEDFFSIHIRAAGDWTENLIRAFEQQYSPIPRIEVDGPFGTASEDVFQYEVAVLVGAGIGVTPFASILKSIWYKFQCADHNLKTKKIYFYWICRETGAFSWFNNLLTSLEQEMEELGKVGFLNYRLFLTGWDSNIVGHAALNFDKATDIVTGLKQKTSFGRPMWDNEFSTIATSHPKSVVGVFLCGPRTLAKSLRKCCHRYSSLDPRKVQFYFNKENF

In the case of `FC(F)(F)c1ccc2c(c1)Nc1ccccc1S2`, the IC50 is 0.32 µM.
